Source: paper PMC7761743, “Structure and Characterization of Phosphoglucomutase 5 from Atlantic and Baltic Herring—An Inactive Enzyme with Intact Substrate Binding” (Biomolecules, 2020)

Molecular target: T1, bPGM5 (Baltic herring PGM5) (Clupea harengus, UniProt A0A6P3VN15)
T1 construct: full length, 567 residues; codon-optimized, E. coli BL21(DE3), pNIC28-Bsa4, N-terminal TEV-cleavable His6-tag (kept in crystals, removed for DSF); monomer; Ser121 phosphorylated in crystal
Test: X-ray crystal structure, […] Å
Type: binding
Settings: active site; His6-tagged protein with phosphorylated Ser121, metal modelled as Ni2+; crystals soaked overnight with 5 mM glucose-1,6-bisphosphate, observed ligand is G1P; pH 6.5

T1 sequence (A0A6P3VN15 entry or part of it): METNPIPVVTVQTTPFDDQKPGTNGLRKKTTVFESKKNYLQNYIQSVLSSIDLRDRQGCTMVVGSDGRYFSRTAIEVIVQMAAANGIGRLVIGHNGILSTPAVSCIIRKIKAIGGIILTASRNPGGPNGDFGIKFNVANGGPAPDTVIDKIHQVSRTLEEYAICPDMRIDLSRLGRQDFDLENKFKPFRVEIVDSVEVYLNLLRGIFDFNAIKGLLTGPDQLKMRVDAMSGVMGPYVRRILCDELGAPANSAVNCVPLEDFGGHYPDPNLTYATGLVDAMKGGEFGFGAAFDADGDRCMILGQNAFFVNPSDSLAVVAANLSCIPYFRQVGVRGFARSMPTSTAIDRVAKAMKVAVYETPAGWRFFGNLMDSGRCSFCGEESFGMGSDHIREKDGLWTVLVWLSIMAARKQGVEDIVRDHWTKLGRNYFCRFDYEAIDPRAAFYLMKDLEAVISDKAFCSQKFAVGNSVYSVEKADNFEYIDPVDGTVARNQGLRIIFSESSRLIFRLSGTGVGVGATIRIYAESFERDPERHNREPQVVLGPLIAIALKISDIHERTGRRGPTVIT

O=P(O)(O)O[C@H]1O[C@H](CO)[C@@H](O)[C@H](O)[C@H]1O [G1P, glucose-1-phosphate]
X-ray crystal structure, 1.95 Å: the observed ligand is G1P instead of the G16P that was used in crystallization
